According to patent US8106038B2, “Method for reducing or preventing PDT related inflammation” (QLT Inc., priority 2001, dated 2012):

Key:
macrophages = conditions: rabbit, in vivo
Method: Tetracaine HCI (0.5%) was used for topical anesthesia.
All eyes were enucleated immediately after euthanasia. […] Serial cryosections were cut and stored at −70° C. Non-treated eyes were used for control. Cryosections were stained with H&E and immunohistochemical staining.

normal rabbit choroid [1] = conditions: in vivo
Method: (§1) Twelve pigmented rabbits weighing between 2 and 4 kg were used. Animals were anesthetized with ketamine HCI (40 mg/kg) and xylocaine (5 mg/kg). Tetracaine HCI (0.5%) was used for topical anesthesia. Tropicamide (1%) and phenylephrine (2.5%) eye drops were used for pupillary dilation. Euthanasia was accomplished with sodium pentobarbital (150 mg/kg) intracardiac injection. Two rabbits were sacrificed at day 2, 7, 14, 28, 42 and 56 following PDT.
(§2) Ten rabbits were injected intravenously with 2 mg/kg BPD-MA, and 689 nm laser light at 600 mW/cm^2 was successively applied on three 1.25-mm spot in one eye according to the following schedule:
Following PDT, animals were kept in a dark room overnight.
Fluorescein angiography (FA) and fundus photography were performed as 2 baseline before PDT, the day after PDT, weekly, and at the day of sacrifice.
(§3) Normal-dose PDT was performed as phase 1 in three rabbits.
(§4) Immediately after each individual light treatment with normal-dose PDT, 5 mm Spot concentric with the 1.25 mm spot was exposed to 15 J/cm^2 (25 sec) in three rabbits. FA and fundus photography was taken as phase 1, and animals were sacrificed for immunohistochemical study at day 28 following PDT.

normal rabbit choroid [2] = conditions: in vivo; remark: listed apart in the source
Method: as §1, §2
(§5) All eyes were enucleated immediately after euthanasia. After the cornea, lens, and vitreous were removed, experimental area was delineated with sharp cuts. Tissue was placed in freezing compound (OCT) and frozen in liquid nitrogen. Serial cryosections were cut and stored at −70° C. Non-treated eyes were used for control. Cryosections were stained with H&E and immunohistochemical staining.

CD4 positive cells = conditions: rabbit, in vivo
Method: as §1, §2, §5
(§6) Frozen sections were thawed and fixed with fresh acetone for 5 minutes. Endogenous peroxide activity was blocked with 0.3% hydrogen peroxide in phosphate buffered saline (PBS). After blocked with PBS and 1% bovine serum albumin (BSA), the specific primary antibodies were diluted in PBS with 1% BSA and incubated at room temperature for an hour. […]

CD8 positive cells = conditions: rabbit, in vivo
Method: as §1, §2, §5, §6

MHC-II positive cells = conditions: rabbit, in vivo
Method: as §1, §2, §5, §6

[3] = tested on: CD4, CD8, Macrophage and MHC-II positive cells; experiment: Immunohistochemistry of inflammatory cells after PDT (combined statements)
Method: as §1, §2, §5
Frozen sections were thawed and fixed with fresh acetone for 5 minutes. Endogenous peroxide activity was blocked with 0.3% hydrogen peroxide in phosphate buffered saline (PBS). After blocked with PBS and 1% bovine serum albumin (BSA), the specific primary antibodies were diluted in PBS with 1% BSA and incubated at room temperature for an hour. Detection was achieved using ABC Elite detection kit (DAKO) with aminoethylcarbizole as the chromogen. Sections were counterstained with light Mayers' hematoxylin, washed with tap water, and mounted in water soluble mounting medium (Biomeda, Catalogue no. MO1).
as §3, §4

9-methyl (I) and 13-methyl (II) trans-(±)-18-ethenyl-4,4a-dihydro-3,4-bis(methoxycarbonyl)-4a,8,14,19-tetramethyl-23H,25H-benzo[b]porphine-9,13-dipropanoate [BPD-MA]
Macrophage positive cells after the additional low-dose PDT (macrophages): slightly increased
change of macrophages versus control (macrophages): statistically significantly increased
neovascular leakage on fluorescein angiography (normal rabbit choroid [1]): no neovascular leakages
dependence of histologic damage on dose of light (normal rabbit choroid [2]): more severe with the higher dose of light
histologic damage of RPE layer, photoreceptor layer, outer nuclear and plexiform layer (normal rabbit choroid [2]): damaged in all cases
histologic damage of inner nuclear layer (normal rabbit choroid [2]): a little damages but generally preserved well
state of choriocapillaries and larger choroidal vessels after PDT (normal rabbit choroid [2]): collapsed after PDT, but not the larger choroidal vessels
time for RPE layer to begin to become a monolayer again (normal rabbit choroid [2]): in two weeks
change of CD4 positive cells in treated area (CD4 positive cells): no significant increase
change of CD4 positive cells versus control (CD4 positive cells): statistically significantly increased
change of CD8 positive cells versus control (CD8 positive cells): statistically significantly increased
change of MHC-II positive cells versus control (MHC-II positive cells): statistically significantly increased
persistence of inflammatory reactions after therapeutic PDT ([3]; normal rabbit choroid): ≤ 56 days
change of CD4, CD8, Macrophage and MHC-II positive cells compared to control ([3]; rabbit, Phase 2, 4 weeks after low-dose PDT): slightly increased
effect of additional concentric large diameter low-dose PDT on the increase in CD4, CD8, Macrophage and MHC-II positive cells after normal-dose PDT ([3]; rabbit, Phase 3, day 28): suppressed the increase
effect of low dose light following therapeutic PDT on inflammation ([3]; rabbit, low dose light 15 J/cm^2): effectively inhibited the increase in inflammation
